Experimental data from patent US20070197591A1, “USE OF PALIPERIDONE FOR THE TREATMENT OF A MENTAL DISORDER IN A PSYCHIATRIC PATIENT WITH REDUCED HEPATIC FUNCTION” (priority 2005, published 2007).

How the values were obtained:
[1] = clinical; design: species or system human; details: human, in vivo
Text: Objectives: to investigate the metabolic pathways of paliperidone and excretion of paliperidone and its metabolites in healthy adult male subjects, both CYP2D6 poor and extensive metabolizers, after administration of a single 1-mg oral dose of ^14C-paliperidone. In addition, to evaluate the safety and tolerability of paliperidone, as well as the relationship between genotypes (CYP2D6, CYP3A4, CYP3A5, UGT1A1, and UGT1A6) and exposure to paliperidone and its metabolites.
Methodology: Single-center, single-dose open-label study of the absorption, metabolism, and excretion (AME) of paliperidone in healthy men (3 extensive and 3 poor metabolizers based on CPY2D6 phenotype). […] Each subject received a single oral dose of ^14C-paliperidone with total radioactivity below […] (16 μCi). Blood samples for plasma pharmacokinetic profile were obtained immediately before study drug administration and 0.5, 1, 1.5, 3, 6, 12, 16, 36, 48, 72, 96, 120, 144 and 168 hours postdose. Blood samples were obtained 2, 4, 8, and 24 hours postdose for determination of ^14C in whole blood. Samples for determination of serum creatinine were obtained 2, 4, 8, and 24 hours postdose. Urine was collected immediately prior to drug administration and from 0-4, 4-8, 8-12, 12-16, 16-24, 24-36, 36-48, 48-72, 96-120, 120-144, and 144-168 hours after study drug administration. Fecal samples were colleted per each stool, once before study drug administration and in the period from 0-168 hours after study drug administration. Collections of urine and feces (per 24 hours) were to continue beyond 168 hours, to a maximum of 336 hours (Day 15) for subjects who excrete radioactivity slowly (2 latest 24-hour urine collections each >2% of total radioactive dose) or have <7 feces stool samples over the 0 to 168-hour period. ^14C radioactivity was measured in plasma, urine, and feces. Aliquots of the 0- through 24-hour urine collections were analyzed for cretinine. Plasma concentrations of paliperidone and risperidone were determined by means of a validated LC-MS/MS method. The ^14C-labeled moiety in plasma and urine was determined by liquid scintillation counting. For all plasma samples, the lower limits of quantification for paliperidone and risperidone were 0.100 ng/mL. For all plasma and urine samples the lower limits of quantification for ^14C-palieridone was 72 dpm/mL (=2.0 n g-eq/mL).
Number of Subjects (Planned and Analyzed): Six healthy men, 3 extensive and 3 poor metabolizers based on CYP2D6 phenotype were to participate in the study. Five subjects, 3 extensive and 2 poor metabolizers, received a single dose of ^14C-paliperidone, completed the study (i.e., completed all assessments through Day 8) and were considered valuable for safety (the Safety Analysis Set), as well as for pharmacokinetics.
Test Product, Dose and Mode of Administration Batch No.: Single oral 0.988-mg dose of ^14C-paliperidone, oral solution (aqueous formulation at a final concentration of 0.0984 mg/mL). Batch No.: unlabeled paliperidone oral solution: ZR076477EIA031 (manufacturing date: 23 Apr. 2003, retest date: 23 Oct. 2004): ^14C-paliperidone: 1763 (expiration date: not applicable)
Criteria for Evaluation: Pharmacokinetics: Plasma paliperidone. ^14C radioactivity and metabolite profiles were determined. Plasma Cmax, tmax, AUClast, AUC24, AUC∞, λZ, t1/2term, CL/F of ^14C and paliperidone were estimated by non-compartmental analysis. Based on the individual urine excretion data and on the serum creatinine concentrations, Ae, Ae, % dose, CLR, CLR,24h and CLer and paliperidone and CLGFR, and CLact of paliperidone were estimated. The excretion half-life of ^14C in urine was also estimated based on excretion rate-time profiles.
Statistical Methods: Pharmacokinetics: Plasma concentrations of ^14C and paliperdone as well as estimates for pharmacokinetic parameters were listed and graphically presented, and the excretion analysis of total radioactivity in plasma, urine and feces were summarized. […]

[2] = Safety and tolerability, single oral 1-mg ^14C-paliperidone in healthy men; assay type: in vivo, human
Description: Safety: Evaluation was based on the incidence, type, and severity of all treatment-emergent adverse events, and on change from screening to the end of the study in clinical laboratory results, vital sign measurements, and postural changes in blood pressure and heart rate.
Safety: The number of subjects with adverse events was summarized. Summary statistics were calculated for clinical laboratory values. Other safety data were listed by individual sect. Changes in blood pressure and heart rate measurements were also presented graphically.

[3] = Plasma protein binding / unbound fraction of paliperidone and its enantiomers; assay type: in vitro ADME, human
Text: Objectives: The primary objective of this study was to investigate the single-dose pharmacokinetics of immediate-release (IR) paliperidone, after oral administration, in subjects having moderate hepatic impairment (“hepatically-impaired subjects”) compared with subjects having normal hepatic function (“healthy subjects”). The secondary objective was to document the plasma protein binding and disposition of the enantiomers of paliperidone. In addition, the tolerability and safety profile of IR paliperidone was compared between hepatically impaired subjects and healthy subjects. Criteria for Evaluation: Pharmacokinetics: Plasma and urine concentrations of the paliperidone enantiomers (+) R078543 and (−) R078544 were determined using an LC-MS/MS method. Concentrations of paliperidone were calculated as the sum of the enantiomer concentrations. In addition, serum and urine concentrations of creatinine were determined for the calculation of CLCR. The protein binding and unbound fraction was determined for the 2 paliperidone enantiomers. The unbound fraction for paliperidone was calculated.

[4] = Hepatically-Impaired Subjects (n = 10; paliperidone n = 8)

Molecule	AUC∞ [1]	deaths, serious adverse events ([2]; 5 healthy men, single oral 1-mg dose)	changes in laboratory test results ([2]; in vivo, po)	overall safety and tolerability ([2]; in vivo, po)	subjects with treatment-emergent adverse events ([2]; in vivo, po)	Unbound Fraction ([3]; Healthy Subjects (n = 10))	Unbound Fraction [3, 4]
^14C-paliperidone	175 ng-eq.h/mL	no deaths, no serious adverse events	no clinically relevant changes	safe and well tolerated	Two of the 5 subjects	–	–
Cc1nc2n(c(=O)c1CCN1CCC(c3noc4cc(F)ccc34)CC1)CCC[C@H]2O [(+) R078543]	–	–	–	–	–	0.215 ± 0.0469	0.306 ± 0.0687
Cc1nc2n(c(=O)c1CCN1CCC(c3noc4cc(F)ccc34)CC1)CCCC2O (single isomer, unassigned; (-)) [(−) R078544]	–	–	–	–	–	0.385 ± 0.0416	0.457 ± 0.0504
